Test results as given in patent US8247211B2, “Glycopeptide antibiotics” (American Cyanamid Company, priority 2001, dated 2012).
Converted amounts (≈) assume the structure as drawn.

Key:
Test in all cases: In vitro antibacterial evaluation: minimum inhibitory concentration (MIC), broth dilution method
Type in all cases: cell-based
Staphylococcus sp. = details: for MIC Staphylococcus aureus (ATCC 29213): strain ATCC 29213; for MIC Staphylococcus aureus (GC 1131): strain GC 1131; for MIC Staphylococcus aureus (GC 4541): strain GC 4541; for MIC Staphylococcus aureus (GC 4542): strain GC 4542; for MIC Staphylococcus aureus-SMITH (GC 4543): strain GC 4543; for MIC Staphylococcus aureus (GC 4544): strain GC 4544; for MIC Staphylococcus aureus (GC 4545): strain GC 4545; for MIC Staphylococcus haemolyticus (GC 4546): strain GC 4546; for MIC Coagulase Negative Staphylococcus (GC 4547): strain GC 4547; for MIC Coagulase Negative Staphylococcus (GC 4548): strain GC 4548; for MIC Coagulase Negative Staphylococcus (GC 4549): strain GC 4549; for MIC Coagulase Negative Staphylococcus (GC 4551): strain GC 4551; for MIC Coagulase Negative Staphylococcus (ID-3941): strain ID-3941
Experimental: (§1) The minimum inhibitory concentration (MIC), the lowest concentration of the antibiotic which inhibits growth of the test organism, is determined by the broth dilution method using Muller-Hinton II […] (Baltimore Biological Laboratories) following the recommendations of the National Committee for Clinical Laboratory Standards [Methods for dilution antimicrobial susceptibility tests for bacteria that grow aerobically, approved standard M7-A2, National Committee for Clinical Laboratory Standards, Villanova, Pa].
(§2) An inoculum level of 5×10^5 CFU/mL, and a range of antibiotic concentrations (64-0.06 μg/mL) is used. […] The test organisms include a spectrum of Gram-positive bacteria comprised of Staphylococcus sp., Streptococcus sp. and Enterococcus sp. These organisms include recent clinical isolates that are resistant to methicillin, penicillin and/or vancomycin.

Streptococcus sp. = details: broth dilution, 5×10^5 CFU/mL, 18 hours at 35° C.
Experimental: as §1, §2

Escherichia coli = details: 5×10^5 CFU/mL, 18 hours at 35° C.
Experimental: as §1, §2

Enterococcus sp. = details: broth dilution, 5×10^5 CFU/mL, 18 hours at 35° C.
Experimental: as §1, §2

[1] = broth dilution, 18 hours at 35° C.

MIC Staphylococcus aureus (ATCC 29213) (Staphylococcus sp.): 1 µg/mL (≈ 0.712 µM) | MIC Staphylococcus aureus (ATCC 29213) (Staphylococcus sp.; [1]): 1 µg/mL (≈ 0.712 µM) | MIC Staphylococcus aureus (GC 1131) (Staphylococcus sp.): 1 µg/mL (≈ 0.712 µM) | MIC Staphylococcus aureus (GC 1131) (Staphylococcus sp.; [1]): 1 µg/mL (≈ 0.712 µM) | MIC Staphylococcus aureus (GC 4541) (Staphylococcus sp.): 1 µg/mL (≈ 0.712 µM) | MIC Staphylococcus aureus (GC 4541) (Staphylococcus sp.; [1]): 1 µg/mL (≈ 0.712 µM) | MIC Staphylococcus aureus (GC 4542) (Staphylococcus sp.): 1 µg/mL (≈ 0.712 µM) | MIC Staphylococcus aureus (GC 4542) (Staphylococcus sp.; [1]): 1 µg/mL (≈ 0.712 µM) | MIC Staphylococcus aureus-SMITH (GC 4543) (Staphylococcus sp.; 18 hours at 35° C.): 1 µg/mL (≈ 0.712 µM) | MIC Staphylococcus aureus-SMITH (GC 4543) (Staphylococcus sp.; [1]): 1 µg/mL (≈ 0.712 µM) | MIC Staphylococcus aureus (GC 4544) (Staphylococcus sp.): 1 µg/mL (≈ 0.712 µM) | MIC Staphylococcus aureus (GC 4544) (Staphylococcus sp.; [1]): 1 µg/mL (≈ 0.712 µM) | MIC Staphylococcus aureus (GC 4545) (Staphylococcus sp.): 1 µg/mL (≈ 0.712 µM) | MIC Staphylococcus aureus (GC 4545) (Staphylococcus sp.; [1]): 1 µg/mL (≈ 0.712 µM) | MIC Coagulase Negative Staphylococcus (GC 4547) (Staphylococcus sp.): 1 µg/mL (≈ 0.712 µM) | MIC Coagulase Negative Staphylococcus (GC 4547) (Staphylococcus sp.; [1]): 1 µg/mL (≈ 0.712 µM) | MIC Coagulase Negative Staphylococcus (GC 4548) (Staphylococcus sp.): <0.5 µg/mL | MIC Coagulase Negative Staphylococcus (GC 4548) (Staphylococcus sp.; [1]): <0.5 µg/mL | MIC Coagulase Negative Staphylococcus (GC 4549) (Staphylococcus sp.): 1 µg/mL (≈ 0.712 µM) | MIC Coagulase Negative Staphylococcus (GC 4549) (Staphylococcus sp.; [1]): 1 µg/mL (≈ 0.712 µM) | MIC Coagulase Negative Staphylococcus (GC 4551) (Staphylococcus sp.): 1 µg/mL (≈ 0.712 µM) | MIC Coagulase Negative Staphylococcus (GC 4551) (Staphylococcus sp.; [1]): 1 µg/mL (≈ 0.712 µM) | MIC Coagulase Negative Staphylococcus (ID-3941) (Staphylococcus sp.): 1 µg/mL (≈ 0.712 µM) | MIC Coagulase Negative Staphylococcus (ID-3941) (Staphylococcus sp.; [1]): 1 µg/mL (≈ 0.712 µM) | MIC Streptococcus agalactiae (GC 4564) (Streptococcus sp.): <0.5 µg/mL | MIC Streptococcus pneumoniae (GC 4565) (Streptococcus sp.): <0.5 µg/mL | MIC Streptococcus pyogenes (ID-3187) (Streptococcus sp.): <0.5 µg/mL | MIC Escherichia coli (ATCC 25922) (Escherichia coli): 16 µg/mL (≈ 11.4 µM) | MIC Enterococccus avium (GC 4558) (Enterococcus sp.): 2 µg/mL (≈ 1.42 µM) | MIC Enterococccus faecalis (ATCC 29212) (Enterococcus sp.): 2 µg/mL (≈ 1.42 µM) | MIC Enterococccus faecalis (GC 4552) (Enterococcus sp.): 2 µg/mL (≈ 1.42 µM) | MIC Enterococccus faecalis (GC 4553) (Enterococcus sp.): 2 µg/mL (≈ 1.42 µM) | MIC Enterococccus faecalis (GC 4554) (Enterococcus sp.): 2 µg/mL (≈ 1.42 µM) | MIC Enterococccus faecium (GC 2243) (Enterococcus sp.): 1 µg/mL (≈ 0.712 µM) | MIC Enterococccus faecium (GC 4556) (Enterococcus sp.): 2 µg/mL (≈ 1.42 µM) | MIC Enterococccus faecium (GC 4557) (Enterococcus sp.): 1 µg/mL (≈ 0.712 µM) | MIC Enterococcus faecalis (GC 2242) (Enterococcus sp.): 2 µg/mL (≈ 1.42 µM)
Compound: CCCCCCCC1OCC2OC(OC3C(CO)OC(Oc4ccc(CC5NC(=O)C(C(C)c6ccccc6)NC(=O)CNC(=O)C(CO)NC(=O)C(C(O)C6CNC(=N)N6C6OC(CO)C(O)C(O)C6O)NC(=O)C(C(O)C6CNC(=N)N6)NC5=O)cc4)C(O)C3O)C(O)C(O)C2O1 (stereo not drawn) [Example 109, Cyclo[glycyl-β-methylphenylalanyl-O-[4-O-(4,6-O-octylidenehexopyranosyl)hexopyranosyl]-tyrosyl-3-(2-iminoimidazoliclin-4-yl)seryl-3-(3-hexopyranosyl-2-iminoimidazolidin-4-yl)-serylseryl]]
MIC Staphylococcus haemolyticus (GC 4546) (Staphylococcus sp.): 1 µg/mL (≈ 0.712 µM) | MIC Staphylococcus haemolyticus (GC 4546) (Staphylococcus sp.; [1]): 1 µg/mL (≈ 0.712 µM)
